Source: patent US11331364B2, “Use for JNK inhibitor molecules for treatment of various diseases” (Xigen Inflammation Ltd., priority 2014, dated 2022)
pIC50: −log10 of the molar value. Square brackets hold non-standard residues; d marks the D form. Peptide text beside a SMILES is read from it.

Assays:
[1] = tested on: primary rat lymph-nodes purified T cells; assay: CD3/CD28-induced IL-2 release in primary rat lymph-nodes purified T cells; format: cell-based; settings: added 1 h before CD3/CD28 (2 μg/mL); supernatant 24 h
Experimental: Control rat were sacrificed and lymph-nodes were harvested. T cells further were purified (using magnetic negative selection) and plated into 96-well plates at 200.000 cells/well. Cells were treated with anti-rat CD3 and anti-rat CD28 antibodies (2 μg/mL). JNK inhibitor with SEQ ID NO: 172 was added to the cultures 1 h before CD3/CD28 treatment and IL-2 release was assessed in supernatant 24 h after treatment.
Control animal were sacrificed, lymph nodes (LN) were harvested and kept in complete RPMI medium. LN were smashed with complete RPMI on 70 μm filter using a 5 ml piston. A few drops of media were added to keep strainer wet. Cells were centrifuged for 7 min at 450 g and 4° C. Pellet was resuspended in 5 ml fresh medium. Cells were passed again through cell strainer. An aliquot of cells was counted, while cells were centrifuged again 10 min at 1400 rpm and 4° C. Cells were resuspended in MACS buffer (80 μl of MACS buffer per 10^7 cells). 10 μl of anti-rat MHC microbeads were added per 10 million cells, cells were incubated for 15 min at 4°-8° C. Cells were washed with 15 ml MACS buffer and centrifuge for 7 min at 700 g and 4° C. […] Resuspended cells were counted and plated at density of 200000 cells/well in 100 μl of complete medium. […] Cytokines were then measured using standard Elisa kits. Results are expressed as pg/ml of supernatant of the measured cytokine. […]

hJNK1 = molecular target: T1, hJNK1 (Homo sapiens, UniProt P45983); assay: hJNK1 | IC50; settings: read-out: hJNK1 | IC50
T1 construct: His; purchased Upstate 14-327
T1 sequence (P45983 whole entry, looked up): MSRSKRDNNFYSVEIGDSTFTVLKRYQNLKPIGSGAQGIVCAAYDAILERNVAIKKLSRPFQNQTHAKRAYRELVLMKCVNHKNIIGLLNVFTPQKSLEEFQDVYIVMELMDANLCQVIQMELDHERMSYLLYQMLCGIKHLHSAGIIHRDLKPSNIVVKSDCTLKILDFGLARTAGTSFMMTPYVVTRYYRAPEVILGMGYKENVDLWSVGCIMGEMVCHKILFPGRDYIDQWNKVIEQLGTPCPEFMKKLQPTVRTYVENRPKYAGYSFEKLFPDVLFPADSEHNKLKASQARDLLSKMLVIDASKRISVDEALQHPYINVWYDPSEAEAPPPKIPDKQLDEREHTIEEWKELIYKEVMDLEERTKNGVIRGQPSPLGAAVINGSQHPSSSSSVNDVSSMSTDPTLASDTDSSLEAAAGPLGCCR

[2] = tested on: acute CYP-induced cystitis in female Sprague-Dawley rats; assay: Cyclophosphamide-induced acute cystitis, intravesical treatment, visceral pain and bladder inflammation; format: in vivo, rat; settings: 50 mg/mL, i.ves.; 24 h after CYP
Experimental: This preclinical model is well-used to test therapeutic approaches for the treatment of interstitial cystitis/painful bladder syndrome (IC/PBS).
Animals were acclimatized to the laboratory conditions for at least 3 days before the start of any experiments. The animals were allocated to the following four experimental groups (n=10 animals per group):
To induce acute cystitis, a single i.p. injection of CYP at a dose of 150 mg/kg in a final volume of 5 mL/kg was performed. Control rats received physiological saline under the same experimental conditions as CYP (final volume of 5 mL/kg, i.p.).
On the day of each experiment, weight of rats was recorded.
Standardized conditions including fixed time-of-day (a.m. to minimize the potential circadian variations in the behaviours responses) and single-experimenter testing of all animals were applied to minimize variability behavior-based pain testing. Visceral pain including allodynia and hyperalgesia was evaluated by applying to the lower abdomen, close to the urinary bladder, a set of 8 calibrated von Frey filaments of increasing forces (1, 2, 4, 6, 8, 10, 26 and 60 g) with an interstimulus interval of 5 seconds. Prior testing, the abdominal area designed for mechanical stimulation of each animal was shaved. Animals were then placed on a raised wire mesh floor under individual transparent Plexiglas box and acclimatized for at least 30 minutes before starting the von Frey test. Filaments were then applied 1-2 seconds through the mesh floor with enough strength to cause the filament to slightly bend. Each filament was tested 3 times. Care was taken to stimulate different areas within the lower abdominal region in the vicinity of the urinary bladder to avoid desensitization.
Nociceptive behaviors were scored for each animal and each filament as follows:
The study design is schematically shown in FIG. 50 A. Birefly, acute cystitis was induced by CYP injection (i.p.) at Do (as described above).
Urinary bladders were rapidly collected and cleaned from lipoid tissue. Urinary bladders were weighed, cut at the bladder neck as well as oedema and haemorrhage scoring was performed (see table below). Finally, wall thickness was measured using a digital caliper by placing the bladder wall between the two outside jaws.

CC(C)C[C@H](NC(=O)[C@H](CC(N)=O)NC(=O)[C@H](CC(C)C)NC(=O)[C@@H](NC(=O)[C@@H](C)NC(=O)[C@@H]1CCCN1C(=O)[C@H](CCCNC(=N)N)NC(=O)[C@@H](CCCCN)NC(=O)[C@@H]1CCCN1C(=O)[C@H](CCCNC(=N)N)NC(=O)[C@@H](CCCNC(=N)N)NC(=O)[C@H](CCCNC(=N)N)NC(=O)[C@H](CCCNC(=N)N)NC(=O)[C@H](CCC(N)=O)NC(=O)[C@@H](CCCNC(=N)N)NC(=O)[C@H](CCCNC(=N)N)NC(=O)[C@H](CCCCN)NC(=O)[C@H](CCCCN)NC(=O)[C@H](N)CCCNC(=N)N)[C@@H](C)O)C(=O)N[C@H](Cc1ccccc1)C(N)=O [SEQ ID NO: 172, rKKRrQRRrRPkRPaTLNLf] (H-[dR]KKR[dR]QRR[dR]RP[dK]RP[dA]TLNL[dF]-NH2; N-terminus assumed)
CD3/CD28-induced IL-2 release [1]: Dose-dependent inhibition
pIC50 (hJNK1): 6.14
AUC 1-8 g (allodynia) vs vehicle [2]: significantly decreased
AUC 8-60 g (hyperalgesia) vs vehicle [2]: reduced
haemorrhage scores vs vehicle [2]: no significant change
nociceptive scores vs vehicle [2]: significantly decreased
nociceptive threshold vs vehicle [2]: significantly increased
oedema scores vs vehicle [2]: significant decrease
urinary bladder wall thickness vs vehicle [2]: significantly decreased
